The values that follow come from US20260022143A1, “Cyclic Peptide Inhibitors of IL-23” (JANSSEN PHARMACEUTICA NV, priority 2022, published 2026).

Counter-ions that a name gives are not always drawn. Starred links: 1 amine or outer side, 2 acyl side, 3 side chain; linkers in the order of their positions; H or OH if unused. Positions of bridges follow the written chain, without caps; N, C: chain ends. Non-standard residues stand in square brackets, D forms with d. Residues, ends and D or L forms follow the SMILES beside them. Groups on a side chain read outwards from the residue. *: point of attachment. Trp(7-(3-AcNH-Ph)) = CC(=O)Nc1cccc(-c2cccc3c(C[C@H](N)C(=O)O)c[nH]c23)c1; X68 = COCCOCCOCCOCCOCCOCCC(=O)N(CCCC[C@@H](N[*:1])C(=O)[*:2])C(C)=O; Me3N+(CH2)2O(CH2)2O(CH2)2CO = C[N+](C)(C)CCOCCOCCC(=O)*; Trp(7-CF3) = N[C@@H](Cc1c[nH]c2c(C(F)(F)F)cccc12)C(=O)O; Trp(7-Me) = Cc1cccc2c(C[C@H](N)C(=O)O)c[nH]c12; Pro(4,4-F2) = O=C(O)[C@@H]1CC(F)(F)CN1; 2Nal = N[C@@H](Cc1ccc2ccccc2c1)C(=O)O; AEF = NCCOc1ccc(C[C@H](N)C(=O)O)cc1; X19 = C[N+](C)(C)C[C@@H](CC(=O)O)N*; X75 = C[N+](C)(C)CCOCC[N+](C)(C)CC*; 3Pal = N[C@@H](Cc1cccnc1)C(=O)O; Lys(Me) = CNCCCC[C@H](N)C(=O)O; Pen = CC(C)(S)[C@H](N)C(=O)O; Suc = O=C(CCC(=O)[*:2])[*:1]; Thp = NC1(C(=O)O)CCOCC1; X3 = C[N+](C)(C)CCCCC*; X91 = c1cc[n+](CC*)cc1; Me2NCH2CH2 = CN(C)CC*; Tfa = O=C(C(F)(F)F)*; Sar = CNCC(=O)O

The series is described as follows: Exposed Polar Surface Area (EPSA). The following applies: SFC on Chirex 3014 column; sample 1 mM DMSO stock; read-out: EPSA. Format: physicochemical. From the text:
Exposed Polar Surface Area (EPSA) is an experimental descriptor of molecular polarity obtained from chromatographic retention in supercritical fluid chromatography (SFC).
The stationary phase (Chirex 3014(S)-valine and (R)-1-(alpha-naphthyl) ethylamine) was selected for its balance of lipophilic and polar attributes and its capacity to separate compounds with wide polarity differences. The mobile phase consists of methanol (+Ammonium formate) and CO2. Polar compounds are retained stronger under these conditions and a low-slope gradient of methanol achieves elution based on increasing polarity of the mobile phase. Results are normalized using calibration standards generating a linear relationship between retention times and EPSA values. The unit of EPSA is Å^2.
Along with the measurement of compounds of interest, a series of 8 calibration standards (see Materials) are analyzed generating a linear relationship between retention times and EPSA value. The 8 compounds used as calibration standard have their own EPSA value defined by G. Goetz based on the comparison with TPSA (see G. Goetz, L. Philippe and M. Shapiro, “EPSA: A novel supercritical fluid chromatography technique enabling the design of permeable cyclic peptides,” ACS Med. Chem. Lett., vol. 5, pp. 1167-1172, 2014 for more information). The slope from the linear relationship between EPSA values of these eight compounds and their retention times is used to determine the EPSA value of each compound of interest that's measured under the same condition using the equation as below: […]
The mixture of calibrations standard is reinjected every 20 compounds to validate the stability of the retention time.
The mobile phase modifier consists of ammonium formate LC_MS grade (>99%) (CAS number 540-69-2) diluted to 20 mM in HPLC grade Methanol (MeOH, CAS number 67-56-1) and liquid C02 SFC grade (CAS number 124-38-9).
Antipyrine (CAS number: 60-80-0) Chlorpromazine hydrochloride (CAS number: 69-09-0), desipramine hydrochloride (CAS number: […]), pindolol (CAS Number: 13523-86-9), diclofenac (CAS number: 15307-79-6)), m-nitro benzoic acid (CAS number: 121-92-6), bumetanide (CAS number: 28395-03-1), furosemide (CAS number: 54-31-9) were purchased from Sigma Aldrich (Steihneim, Germany).
All analyses were performed on a ultra performance convergence chromatography (UPC™) apparatus (Waters, Milford, MA, USA) equipped with a sample manager, a binary solvent delivery pump (BSM), a column manager, a convergence manager (automated back pressure regulator), a photo diode array detector (DAD) with a high pressure flow cell, and a mass detector simple quadrupole QDa. After the UV detector, the effluent of the SFC was mixed with an eluent consist of mixture MeOH/water (+0.3% Ammonia) 95/5 delivered by a make up pump with a flow rate of 0.4 mL/min and then split to the QDa using a splitter. The instrument was controlled, and data were processed with Masslynx 4.1.
The Analyses were performed using a 4.6×50 mm Chirex 3014(S)-valine and (R)-1-(alpha- naphthyl) ethylamine column (Phenomenex, Le Pecq, France) with 5 um particle and 100A pore size. The flow rate was 4 mL/min with the outlet pressure set to 14 MPa. The injection volume was 2 μL. the mobile phase composition was varied from 5% to 60% modifier at 20%/ min in a linear gradient, holding at 60% for 1.45 min and reverting to the original 5% until the end of the run. Data are acquired during 5 min. An equilibration time of 1 min is applied between 2 injections resulting in an injection every 6 min. each sample is analyzed in duplicate, resulting in a sample to sample turnaround time of 12 min.
The column temperature was set to 35° C. The mass detector was used in full scan from 100 to 800 for small molecules and from 500 to 1200 for peptides.
Each sample is delivered by compound logistics from DMSO stock solution without dilution. The concentration is 1 mM and the volume is 60 μL.
For the compound `CC(=O)NCCCC[C@@H]1NC(=O)[C@H](Cc2c[nH]c3c(-c4cccc(NC(C)=O)c4)cccc23)NC(=O)[C@H]([C@@H](C)O)NC(=O)[C@H](CC(N)=O)NC(=O)[C@@H](NC(=O)CCOCCOCC[N+](C)(C)C)C(C)(C)SSC(C)(C)[C@@H](C(=O)N[C@@H](Cc2ccc(OCCCCC[N+](C)(C)C)cc2)C(=O)N[C@@H](Cc2ccc3ccccc3c2)C(=O)NC2(C(=O)N[C@@H](CCC(=O)O)C(=O)N[C@@H](CC(N)=O)C(=O)N[C@@H](Cc3cccnc3)C(=O)N(C)CC(N)=O)CCOCC2)NC1=O` [compound 444, cPEG3aCO-Pen(3)-N-T-7(3NAcPh)W-K(Ac)-Pen(3)-TMAPF-2Nal-THP-E-N-3Pya-Sar-CONH2] ({Me3N+(CH2)2O(CH2)2O(CH2)2CO}-[Pen]NT[Trp(7-(3-AcNH-Ph))]K(Ac)[Pen]Y(X3)[2Nal][Thp]EN[3Pal][Sar]-NH2; disulfide 1-6), the EPSA is 174 A^2.

In the case of `COCCOCCOCCOCCOCCOCCC(=O)N(CCCC[C@H]1NC(=O)[C@H](Cc2c[nH]c3c(C)cccc23)NC(=O)[C@H]([C@@H](C)O)NC(=O)[C@H](CC(N)=O)NC(=O)[C@@H](NC(C)=O)C(C)(C)SSC(C)(C)[C@@H](C(=O)N[C@@H](Cc2ccc(OCCN)cc2)C(=O)N[C@@H](Cc2ccc3ccccc3c2)C(=O)NC2(C(=O)N[C@@H](CCCCNC(C)=O)C(=O)N[C@@H](CC(N)=O)C(=O)N[C@@H](Cc3cccnc3)C(=O)N(C)CC(N)=O)CCOCC2)NC1=O)C(C)=O` [compound 78] (Ac-[Pen]NT[Trp(7-Me)][X68][Pen][AEF][2Nal][Thp]K(Ac)N[3Pal][Sar]-NH2; disulfide 1-6), the EPSA turned out to be 157 A^2.

As for `CC(=O)N(C)CCCC[C@@H]1NC(=O)[C@H](Cc2c[nH]c3c(C(F)(F)F)cccc23)NC(=O)[C@H]([C@@H](C)O)NC(=O)[C@H](CC(=O)N(C)C)NC(=O)[C@@H](NC(=O)C(F)(F)F)C(C)(C)SSC(C)(C)[C@@H](C(=O)N[C@@H](Cc2ccc(OCCN(C)C)cc2)C(=O)N[C@@H](Cc2ccc3ccccc3c2)C(=O)NC2(C(=O)N[C@@H](CCCCN(C)C(C)=O)C(=O)N[C@@H](CC(N)=O)C(=O)N[C@@H](Cc3cccnc3)C(=O)N(C)CC(=O)N(C)C)CCOCC2)NC1=O` [compound 95, CF3CO-Pen(3)-N(N(Me)2)-T-7CF3W-K(NMeAc)-Pen(3)-AEF(N(Me)2)-2Nal-THP-K(NMeAc)-N-3Pya-Sar-CON(Me)2] (Tfa-[Pen]D(NMe2)T[Trp(7-CF3)][Lys(Me)](Ac)[Pen]Y(Me2NCH2CH2)[2Nal][Thp][Lys(Me)](Ac)N[3Pal][Sar]-NMe2; disulfide 1-6 (inferred)), the EPSA stood at 131 A^2.

On to `CC(=O)N(C)CCCC[C@@H]1NC(=O)[C@H](Cc2c[nH]c3c(C)cccc23)NC(=O)[C@H]([C@@H](C)O)NC(=O)[C@H](CC(=O)N(C)C)NC(=O)[C@@H](NC(=O)CCOCCOCC[N+](C)(C)C)C(C)(C)SSC(C)(C)[C@@H](C(=O)N[C@@H](Cc2ccc(OCC[n+]3ccccc3)cc2)C(=O)N[C@@H](Cc2ccc3ccccc3c2)C(=O)NC2(C(=O)N[C@@H](CCCCN(C)C(C)=O)C(=O)N[C@@H](CC(N)=O)C(=O)N[C@@H](Cc3cccnc3)C(=O)N(C)CC(=O)N(C)C)CCOCC2)NC1=O` [compound 231, cPEG3aCO-Pen(3)-N(N(Me)2)-T-7MeW-K(NMeac)-Pen(3)-NPyEF-2Nal-THP-K(NMeAc)-N-3Pya-Sar-CON(Me)2] ({Me3N+(CH2)2O(CH2)2O(CH2)2CO}-[Pen]D(NMe2)T[Trp(7-Me)][Lys(Me)](Ac)[Pen]Y(X91)[2Nal][Thp][Lys(Me)](Ac)N[3Pal][Sar]-NMe2; disulfide 1-6), for which the EPSA is 147 A^2.

Turning to `CC(=O)NCCCC[C@@H]1NC(=O)[C@H](Cc2c[nH]c3c(C)cccc23)NC(=O)[C@H]([C@@H](C)O)NC(=O)[C@H](CC(N)=O)NC(=O)[C@@H](NC(C)=O)C(C)(C)SSC(C)(C)[C@@H](C(=O)N[C@@H](Cc2ccc(OCC[N+]3(C)CCOCC3)cc2)C(=O)N[C@@H](Cc2ccc3ccccc3c2)C(=O)NC2(C(=O)N[C@@H](CCCCNC(C)=O)C(=O)N[C@@H](CC(N)=O)C(=O)N[C@@H](Cc3cccnc3)C(=O)N(C)CC(N)=O)CCOCC2)NC1=O` [compound 562, MeCO-Pen(3)-N-T-7MeW-K(Ac)-Pen(3)-MMoEF-2Nal-THP-K(Ac)-N-3Pya-Sar-CONH2], the EPSA was found to be 166 A^2.

Turning to `CC(=O)NCCCC[C@@H]1NC(=O)[C@H](Cc2c[nH]c3c(C)cccc23)NC(=O)[C@H]([C@@H](C)O)NC(=O)[C@H](CC(N)=O)NC(=O)[C@@H](NC(=O)C(F)(F)F)C(C)(C)SSC(C)(C)[C@@H](C(=O)N[C@@H](Cc2ccc(OCCN)cc2)C(=O)N[C@@H](Cc2ccc3ccccc3c2)C(=O)NC2(C(=O)N[C@@H](CCCCNC(C)=O)C(=O)N[C@@H](CC(N)=O)C(=O)N[C@@H](Cc3cccnc3)C(=O)N3CC(F)(F)C[C@H]3C(=O)N(C)C)CCOCC2)NC1=O` [compound 73] (Tfa-[Pen]NT[Trp(7-Me)]K(Ac)[Pen][AEF][2Nal][Thp]K(Ac)N[3Pal][Pro(4,4-F2)]-NMe2; disulfide 1-6 (inferred)), the EPSA stood at 155 A^2.

`CC(=O)N(C)CCCC[C@@H]1NC(=O)[C@H](Cc2c[nH]c3c(C)cccc23)NC(=O)[C@H]([C@@H](C)O)NC(=O)[C@H](CC(=O)N(C)C)NC(=O)[C@@H](NC(=O)CCOCCOCC[N+](C)(C)C)C(C)(C)SSC(C)(C)[C@@H](C(=O)N[C@@H](Cc2ccc(OCC[N+](C)(C)CCOCC[N+](C)(C)C)cc2)C(=O)N[C@@H](Cc2ccc3ccccc3c2)C(=O)NC2(C(=O)N[C@@H](CCCCN(C)C(C)=O)C(=O)N[C@@H](CC(N)=O)C(=O)N[C@@H](Cc3cccnc3)C(=O)N(C)CC(=O)N(C)C)CCOCC2)NC1=O` [compound 264, cPEG3aCO-Pen(3)-N(N(Me)2)-T-7MeW-K(NMeAc)-Pen(3)-AEF(aPEG2a)-2Nal-THP-K(NMeAc)-N-3Pya-Sar-CON(Me)2] ({Me3N+(CH2)2O(CH2)2O(CH2)2CO}-[Pen]D(NMe2)T[Trp(7-Me)][Lys(Me)](Ac)[Pen]Y(X75)[2Nal][Thp][Lys(Me)](Ac)N[3Pal][Sar]-NMe2; disulfide 1-6): the EPSA turned out to be 151 A^2.

As to `CC(=O)NCCCC[C@@H]1NC(=O)[C@H](Cc2c[nH]c3c(C)cccc23)NC(=O)[C@H]([C@@H](C)O)NC(=O)[C@H](CC(N)=O)NC(=O)[C@@H](NC(=O)[C@@H](CCCCNC(=O)CCC(=O)N[C@H](CC(=O)O)C[N+](C)(C)C)NC(C)=O)C(C)(C)SSC(C)(C)[C@@H](C(=O)N[C@@H](Cc2ccc(OCCN)cc2)C(=O)N[C@@H](Cc2ccc3ccccc3c2)C(=O)NC2(C(=O)N[C@@H](CCCCNC(C)=O)C(=O)N[C@@H](CC(N)=O)C(=O)N[C@@H](Cc3cccnc3)C(=O)N(C)CC(N)=O)CCOCC2)NC1=O` [compound 107] (Ac-[dK]([Suc-X19])[Pen]NT[Trp(7-Me)]K(Ac)[Pen][AEF][2Nal][Thp]K(Ac)N[3Pal][Sar]-NH2; disulfide 2-7), the EPSA was determined as 173 A^2.

Regarding `CC(=O)NCCCC[C@@H]1NC(=O)[C@H](Cc2c[nH]c3c(C)cccc23)NC(=O)[C@H]([C@@H](C)O)NC(=O)[C@H](CC(N)=O)NC(=O)[C@@H](NC(C)=O)C(C)(C)SSC(C)(C)[C@@H](C(=O)N[C@@H](Cc2ccc(OCCN)cc2)C(=O)N[C@@H](Cc2ccc3ccccc3c2)C(=O)NC2(C(=O)N[C@@H](CCCCNC(=O)CCC(=O)N[C@H](CC(=O)O)C[N+](C)(C)C)C(=O)N[C@@H](CC(N)=O)C(=O)N[C@@H](Cc3cccnc3)C(=O)N(C)CC(N)=O)CCOCC2)NC1=O` [compound 109] (Ac-[Pen]NT[Trp(7-Me)]K(Ac)[Pen][AEF][2Nal][Thp]K([Suc-X19])N[3Pal][Sar]-NH2; disulfide 1-6), the EPSA was found to be 171 A^2.
